Here are results for 13 compounds from article PMC3794980, “Identification of Conserved and HLA Promiscuous DENV3 T-Cell Epitopes” (PLoS Neglected Tropical Diseases, 2013).

For one test, the target named is DRB5*0101 (Homo sapiens, UniProt P01903+Q30154). In words: biochemical. Type of test: binding.
Another test addresses DRB3*0101 (Homo sapiens, UniProt P01903+P79483). In words: biochemical. Type of test: binding.

Turning to `CC[C@H](C)[C@H](NC(=O)[C@H](CC(=O)O)NC(=O)[C@@H](N)[C@@H](C)O)C(=O)N[C@@H](CO)C(=O)N[C@@H](CCC(=O)O)C(=O)N[C@@H](CCSC)C(=O)NCC(=O)N[C@@H](C)C(=O)N[C@@H](CC(N)=O)C(=O)N[C@@H](Cc1ccccc1)C(=O)N[C@@H](CCCCN)C(=O)N[C@@H](C)C(=O)N[C@@H](CC(=O)O)C(=O)N[C@@H](CCCNC(=N)N)C(=O)N[C@H](C(=O)O)C(C)C` [NS3 409-423], the concentration for half-maximal inhibition (IC50) at DRB5*0101 stood at 0.05 µM; at DRB3*0101, 0.168 µM. The like results for `CC[C@H](C)[C@H](NC(=O)[C@@H](NC(=O)[C@@H]1CCCN1C(=O)[C@@H](N)CO)[C@@H](C)CC)C(=O)N[C@@H](CC(N)=O)C(=O)N[C@@H](CCCNC(=N)N)C(=O)N[C@@H](CCC(=O)O)C(=O)NCC(=O)N[C@@H](CCCCN)C(=O)N[C@H](C(=O)N[C@H](C(=O)NCC(=O)N[C@@H](CC(C)C)C(=O)N[C@@H](Cc1ccc(O)cc1)C(=O)NCC(=O)O)C(C)C)C(C)C` [NS3 137-151] were, in that order, 1.68 µM and 9.58 µM.

Regarding `CC(C)C[C@H](NC(=O)[C@H](CCCCN)NC(=O)[C@@H](NC(=O)[C@H](CCCCN)NC(=O)[C@H](CCC(N)=O)NC(=O)[C@H](Cc1ccc(O)cc1)NC(=O)[C@H](CCC(=O)O)NC(=O)[C@@H](N)[C@@H](C)O)[C@@H](C)O)C(=O)N[C@@H](CC(N)=O)C(=O)N[C@@H](CC(=O)O)C(=O)N[C@@H](Cc1c[nH]c2ccccc12)C(=O)N[C@@H](CC(=O)O)C(=O)N[C@@H](Cc1ccccc1)C(=O)N[C@H](C(=O)N[C@H](C(=O)O)C(C)C)C(C)C` [NS3 393-407], the IC50 stood at 15.9 µM against DRB5*0101 and 3.7 µM at DRB3*0101. On the same counts, the results for `CC(C)[C@H](NC(=O)[C@H](CCC(=O)O)NC(=O)[C@H](Cc1ccc(O)cc1)NC(=O)[C@H](CO)NC(=O)CNC(=O)[C@H](Cc1c[nH]cn1)NC(=O)[C@H](Cc1ccc(O)cc1)NC(=O)[C@H](C)NC(=O)[C@H](Cc1c[nH]c2ccccc12)NC(=O)[C@@H](NC(=O)[C@H](CCCCN)NC(=O)[C@H](Cc1ccc(O)cc1)NC(=O)[C@@H]1CCCN1C(=O)[C@H](CC(N)=O)NC(=O)[C@H](CCC(=O)O)NC(=O)[C@@H](N)CC(=O)O)[C@@H](C)O)C(=O)N[C@@H](CCCCN)C(=O)O` [NS5 295-311] are 5.29 µM and 0.98 µM. Turning to `CC(C)[C@H](NC(=O)[C@H](CCC(=O)O)NC(=O)[C@H](Cc1ccc(O)cc1)NC(=O)[C@H](CO)NC(=O)CNC(=O)[C@H](Cc1c[nH]cn1)NC(=O)[C@H](Cc1ccc(O)cc1)NC(=O)[C@H](C)NC(=O)[C@H](Cc1c[nH]c2ccccc12)NC(=O)[C@@H](N)[C@@H](C)O)C(=O)N[C@@H](CCCCN)C(=O)N[C@@H](C)C(=O)N[C@H](C(=O)NCC(=O)N[C@@H](CO)C(=O)N[C@@H](C)C(=O)O)[C@@H](C)O` [NS5 301-316], the IC50 on DRB5*0101 was 1.83 µM; against DRB3*0101, 0.536 µM. On the same counts, the results for `CC[C@H](C)[C@H](N)C(=O)N[C@@H](CCCNC(=N)N)C(=O)N[C@@H](Cc1ccc(O)cc1)C(=O)N[C@@H](CCC(N)=O)C(=O)N[C@H](C(=O)N[C@H](C(=O)N[C@@H](C)C(=O)N[C@H](C(=O)N[C@@H](CCCCN)C(=O)N[C@@H](CO)C(=O)N[C@@H](CCC(=O)O)C(=O)N[C@@H](Cc1c[nH]cn1)C(=O)N[C@H](C(=O)NCC(=O)N[C@@H](CCCNC(=N)N)C(=O)O)[C@@H](C)O)[C@@H](C)O)[C@@H](C)O)[C@@H](C)O` [NS3 241-255] are 0.017 µM and 12.8 µM.

At DRB5*0101, `CC[C@H](C)[C@H](NC(=O)[C@@H](NC(=O)[C@@H](N)Cc1ccccc1)[C@@H](C)CC)C(=O)N[C@@H](CC(=O)O)C(=O)NCC(=O)N1CCC[C@H]1C(=O)N[C@@H](CC(N)=O)C(=O)N[C@H](C(=O)N1CCC[C@H]1C(=O)N[C@@H](CCC(=O)O)C(=O)N[C@@H](CS)C(=O)N1CCC[C@H]1C(=O)N[C@@H](CO)C(=O)N[C@@H](C)C(=O)N[C@@H](CO)C(=O)O)[C@@H](C)O` [NS1 133-147] had a half-inhibitory concentration (IC50) of 6.91 µM. Regarding `CC[C@H](C)[C@H](NC(=O)[C@H](CO)NC(=O)[C@@H]1CCCN1C(=O)[C@@H](NC(=O)[C@H](Cc1ccccc1)NC(=O)[C@H](Cc1c[nH]c2ccccc12)NC(=O)[C@@H](NC(=O)[C@@H](NC(=O)[C@H](CCCCN)NC(=O)CNC(=O)[C@H](C)NC(=O)[C@H](Cc1ccccc1)NC(=O)[C@H](CC(=O)O)NC(=O)[C@@H](N)[C@@H](C)O)[C@@H](C)O)C(C)C)C(C)C)C(=O)N[C@@H](CCCCN)C(=O)O` [NS3 353-367], the 50% inhibitory concentration (IC50) turned out to be 1.22 µM against DRB5*0101 and 15.7 µM at DRB3*0101.

For `CC(C)C[C@H](NC(=O)[C@H](CC(=O)O)NC(=O)[C@H](Cc1ccccc1)NC(=O)[C@@H](N)Cc1ccccc1)C(=O)N1CCC[C@H]1C(=O)N[C@@H](CC(C)C)C(=O)N1CCC[C@H]1C(=O)N[C@@H](Cc1c[nH]c2ccccc12)C(=O)N[C@H](C(=O)N[C@@H](CO)C(=O)NCC(=O)N[C@@H](C)C(=O)N[C@H](C(=O)N[C@H](C(=O)N[C@@H](CCC(=O)O)C(=O)O)[C@@H](C)O)[C@@H](C)O)[C@@H](C)O` [Envelope 211-225], the half-maximal inhibitory concentration (IC50) on DRB5*0101 is 16.2 µM. Turning to `CSCC[C@H](NC(=O)CNC(=O)CNC(=O)[C@H](Cc1c[nH]cn1)NC(=O)[C@H](CCCCN)NC(=O)[C@H](CCCNC(=N)N)NC(=O)[C@H](CCC(N)=O)NC(=O)[C@H](CC(C)C)NC(=O)[C@H](CCCNC(=N)N)NC(=O)[C@H](CCC(=O)O)NC(=O)[C@@H](N)CC(C)C)C(=O)N[C@@H](CC(C)C)C(=O)N[C@H](C(=O)N[C@@H](CCCNC(=N)N)C(=O)N[C@@H](CC(N)=O)C(=O)N1CCC[C@H]1C(=O)N[C@@H](CC(C)C)C(=O)O)C(C)C` [NS5 193-209], the 50% inhibitory concentration (IC50) against DRB5*0101 stood at 1.2 µM; against DRB3*0101 it was 12 µM. As for `CC[C@H](C)[C@H](NC(=O)[C@H](CO)NC(=O)[C@@H]1CCCN1C(=O)[C@@H](NC(=O)[C@H](Cc1ccccc1)NC(=O)[C@H](Cc1c[nH]c2ccccc12)NC(=O)[C@@H](NC(=O)[C@@H](NC(=O)[C@H](CCCCN)NC(=O)CN)[C@@H](C)O)C(C)C)C(C)C)C(=O)N[C@@H](CCCCN)C(=O)N[C@@H](C)C(=O)NCC(=O)N[C@@H](CC(N)=O)C(=O)N[C@@H](CC(=O)O)C(=O)O` [NS3 357-371], the IC50 against DRB5*0101 was 0.273 µM. In other words, the sub-micromolar range. On the same count and under the same terms, in the case of `CC[C@H](C)[C@H](NC(=O)[C@H](CS)NC(=O)[C@H](Cc1ccccc1)NC(=O)[C@H](CCC(N)=O)NC(=O)[C@H](CC(N)=O)NC(=O)[C@H](CC(N)=O)NC(=O)[C@H](CCCCN)NC(=O)[C@H](CC(C)C)NC(=O)[C@H](Cc1c[nH]c2ccccc12)NC(=O)[C@@H]1CCCN1C(=O)[C@H](CCC(=O)O)NC(=O)[C@@H](NC(=O)[C@H](CCSC)NC(=O)[C@H](CCCCN)NC(=O)[C@@H](N)CC(C)C)C(C)C)C(=O)N[C@@H](CCCCN)C(=O)N[C@H](C(=O)O)C(C)C` [NS5 165-181] it was 0.02 µM. Same read-out and setting: in the case of `CSCC[C@H](NC(=O)[C@H](C)NC(=O)[C@H](CCSC)NC(=O)[C@H](CCC(N)=O)NC(=O)[C@@H](NC(=O)[C@@H](NC(=O)[C@H](CCSC)NC(=O)[C@@H]1CCCN1C(=O)[C@@H](NC(=O)[C@@H](NC(=O)[C@H](CC(=O)O)NC(=O)[C@H](Cc1c[nH]c2ccccc12)NC(=O)[C@@H]1CCCN1)C(C)C)C(C)C)C(C)C)[C@@H](C)O)C(=O)N[C@H](C(=O)N[C@@H](CC(=O)O)C(=O)N[C@H](C(=O)N[C@H](C(=O)O)[C@@H](C)O)[C@@H](C)O)[C@@H](C)O` [NS5 330-346] it was 1.04 µM.
